Results published in patent US7629458B2, “Preparation of levofloxacin and hemihydrate thereof” (Teva Pharmaceutical Industries Ltd., priority 2001, dated 2009).
Blank lines part the entries; values can stand above or below the compound they belong to.

Key:
[1] = Storage of crystal forms in a closed or open bottle at RT, conversion to hemihydrate by absorption of atmospheric water; format: physicochemical; conditions: sample kept in an open bottle
Description: Another embodiment of the invention is a method for preparing a levofloxacin hemihydrate comprising storing one or more forms selected from the group consisting of Forms A, B, C, F, G, and H for an amount of time sufficient for the one or more forms to convert to a levofloxacin hemihydrate by the absorption of atomospheric water. For example, Forms A, B, C, F, G and H were converted to hemihydrate after 7-29 days of storing in a closed bottle at RT. The conversion to hemihydrate was faster (about 24 h) when keeping the sample in an open bottle.

[2] = Exposure of wet material to the air at RT covered with paper, polymorph of the sample; format: physicochemical
Method: The wet material was exposed to the air at RT covered with paper (for protection).
A first portion of the wet material was stirred in 5 v of acetonitrile at 75° C. for 2 h, then filtrated under vacuum. The polymorphism of the wet sample was Hemihydrate. A second portion of the wet material was exposed to the air at RT covered with paper (for protection).
After a few hours the polymorph of the wet samples was Hemihydrate.

[3] = ordinary relative humidity conditions; cited from earlier work

time of conversion to hemihydrate [1]: about 24 h
Compound: C[C@H]1COc2c(N3CCN(C)CC3)c(F)cc3c(=O)c(C(=O)O)cn1c23 [Form A, levofloxacin]

polymorph of the wet sample after exposure to the air ([2]; after 3, 6, 9 hours (Example 12)): Form G
polymorph of the wet sample after exposure to the air ([2]; after 24 hours (Example 12)): hemihydrate polymorph
polymorph of the wet sample after exposure to the air ([2]; after a few hours (Example 13)): Hemihydrate
Compound: C[C@H]1COc2c(N3CCN(C)CC3)c(F)cc3c(=O)c(C(=O)O)cn1c23 [Form H, levofloxacin]

Compound: C[C@H]1COc2c(N3CCN(C)CC3)c(F)cc3c(=O)c(C(=O)O)cn1c23 [Form γ, levofloxacin]
form obtained after rapid adsorption of water vapor [3]: hemihydrate

Compound: C[C@H]1COc2c(N3CCN(C)CC3)c(F)cc3c(=O)c(C(=O)O)cn1c23 [form α, levofloxacin]
form obtained after rapid adsorption of water vapor [3]: monohydrate
